# Literature values as cited in paper PMC7238799 (Pulmonary Circulation, 2020).
# Where two headings read alike, the source gives them in different places.
# Experiments:
# [1] = cited from earlier work; for Half-life / Steady-state PTR: oral
# [2] = tested on: prostacyclin (IP) receptor; conditions: cited from earlier work
# [3] = tested on: healthy male subjects; conditions: from 400 µg BID up to 1600–1800 µg BID; cited from earlier work
# [4] = BID oral administration of selexipag
structure (smiles),measurement,setting,value
CC#CCC(C)[C@H](O)/C=C/[C@@H]1[C@H]2c3cccc(CCCC(=O)O)c3O[C@H]2C[C@H]1O (mixture of isomers) [beraprost],Half-life,[1]; administered four times daily,0.75 h
CC(C)N(CCCCOCC(=O)O)c1cnc(-c2ccccc2)c(-c2ccccc2)n1 [ACT-333679],Accumulation at steady-state,[1]; [4],1.02–1.27 fold
same,Mean steady-state PTR,[1]; [4],5.6–6.5
same,Effective half-life (EHL),[1]; active metabolite of selexipag,3 to 4 h
same,Terminal elimination half-life,[1]; active metabolite of selexipag,6.2 to 13.5 h
same,Maximal cAMP stimulation (efficacy percentage relative to iloprost),[2],48%
same,Type of IP receptor agonism,[2],weak partial agonist
CC#CCC(C)[C@H](O)/C=C/[C@@H]1[C@H]2C/C(=C/CCCC(=O)O)C[C@H]2C[C@H]1O (stereo partly shown) [iloprost],Maximal cAMP stimulation (efficacy percentage relative to iloprost),[2],100%
same,Type of IP receptor agonism,[2],full agonist
CC(C)N(CCCCOCC(=O)NS(C)(=O)=O)c1cnc(-c2ccccc2)c(-c2ccccc2)n1 [selexipag],Treated subjects achieving full dose escalation,[3],67–81%
CCCCC[C@H](O)CC[C@@H]1[C@H]2Cc3cccc(OCC(=O)O)c3C[C@H]2C[C@H]1O [treprostinil],Steady-state PTR,[1]; BID dosing,7.0
same,Steady-state PTR,[1]; TID dosing,2.5
same,Half-life,[1]; administered two or three times daily,3 to 4 h
